# Experimental data published in patent publication US7109174B2, “Anticonvulsant derivatives useful for preventing the development of type II diabetes mellitus and syndrome X” (Ortho-McNeil Pharmaceutical, Inc., priority 2000, dated 2006).
# Tested on: ob/ob mice
# Assay: ob/ob mice second study: topiramate in food for 118 days; skin lesions, glucose, insulin, glycosylated hemoglobin, body weight
# Assay type: in vivo
# Design: Glycosylated hemoglobin: unit not given here
# Settings: for Skin lesions Mild (mice) / Skin lesions Moderate (mice) / Skin lesions Severe (mice) / Skin lesions Total (mice): 180 mg/kg/day, N = 9
# Excerpt: It is known that ob/ob mice when allowed to eat ad libitum, develop abnormally high blood levels of insulin (hyperinsulinemia), glucose (hyperglycemia), lesions of the skin, and a high level of glycosylated hemoglobin, all of which are hallmark signs of Type II diabetes mellitus (R. R. HENRY, Ann. Intern. Med. 1996, 124, 97–103; G. W. EDELSON, Clin. Podiatr. Med. Surg. 1998, 15, 41–48; P. R. JOHNSON, M. R. GREENWOOD, B. A. HORWITZ and J. S. STERN, Annu. Rev. Nutr. 1991, 11, 325–353). Based on this knowledge of the ob/ob mouse model, two studies were designed to determine the effect of compounds of formula (I) in these mice models.
# In the second study, a uniform population of mice was divided into two groups. In one group of control mice, no topiramate was added to the food for the entire 118-day period. In a second group, topiramate was added to the food in amounts sufficient to give a daily dose of 60 mg/kg for 6 days, then a daily dose of 180 mg/kg for 112 days. During the course of the dosing period the mice were examined two-times a week for skin lesions. When skin lesions were evident, the severity was estimated based on the number and size of the lesions, and given a score ranging from mild to severe (Table 2). For four of the control mice their health deteriorated to the point that they either died or had to be euthanized. Three of these four control mice had lesions (two mice were classified as severe and one mice as mild). […] By comparison none of the nine mice treated with topiramate ever developed skin lesions (Table 2). After the 118-day period was completed, all surviving mice were sacrificed and blood was obtained and prepared for subsequent analysis of plasma glucose and insulin, and glycosylated hemoglobin. […] The body weight gain was similar in both groups throughout the study. Therfore, the beneficial effects of topiramate on the biological markers of the disease cannot be secondary to the potential beneficial effect that might arise from a loss of body eight.
smiles,measurement,setting,value
"CC1(C)O[C@@H]2[C@@H](CO[C@@]3(COS(N)(=O)=O)OC(C)(C)O[C@@H]23)O1 [Topiramate, 2,3:4,5-bis-O-(1-methylethylidene)-β-D-fructopyranose sulfamate]",level of blood glucose,"60 mg/kg/day 6 days then 180 mg/kg/day 112 days in food, end of study, mean±SEM, n=9, P<0.05",131 ± 13 mg/dL
same,Skin lesions Mild (mice),Day 41,0
same,Skin lesions Moderate (mice),Day 41,0
same,Skin lesions Severe (mice),Day 41,0
same,Skin lesions Total (mice),Day 41,0
same,Skin lesions Mild (mice),Day 53,0
same,Skin lesions Moderate (mice),Day 53,0
same,Skin lesions Severe (mice),Day 53,0
same,Skin lesions Total (mice),Day 53,0
same,Skin lesions Mild (mice),Day 61,0
same,Skin lesions Moderate (mice),Day 61,0
same,Skin lesions Severe (mice),Day 61,0
same,Skin lesions Total (mice),Day 61,0
same,Skin lesions Mild (mice),Day 70,0
same,Skin lesions Moderate (mice),Day 70,0
same,Skin lesions Severe (mice),Day 70,0
same,Skin lesions Total (mice),Day 70,0
same,Skin lesions Mild (mice),Day 83,0
same,Skin lesions Moderate (mice),Day 83,0
same,Skin lesions Severe (mice),Day 83,0
same,Skin lesions Total (mice),Day 83,0
same,Skin lesions Mild (mice),Day 96,0
same,Skin lesions Moderate (mice),Day 96,0
same,Skin lesions Severe (mice),Day 96,0
same,Skin lesions Total (mice),Day 96,0
same,Skin lesions Mild (mice),Day 97,0
same,Skin lesions Moderate (mice),Day 97,0
same,Skin lesions Severe (mice),Day 97,0
same,Skin lesions Total (mice),Day 97,0
same,Skin lesions Mild (mice),Day 105,0
same,Skin lesions Moderate (mice),Day 105,0
same,Skin lesions Severe (mice),Day 105,0
same,Skin lesions Total (mice),Day 105,0
same,Skin lesions Mild (mice),Day 118,0
same,Skin lesions Moderate (mice),Day 118,0
same,Skin lesions Severe (mice),Day 118,0
same,Skin lesions Total (mice),Day 118,0
same,body weight,day 118,55.1 ± 1.3 g
same,body weight,"day −1, n=9",42.8 ± 1.1 g
same,insulin levels versus control,end of 118-day study,did not differ
same,Glycosylated hemoglobin,"end of 118-day study, mean±SEM, n=9, P<0.01",3.16±0.1
same,mice that ever developed skin lesions,"nine topiramate-treated mice, 118-day period",none
same,body weight gain versus control,throughout the 118-day study,similar
same,blood glucose difference between groups,topiramate-treated versus control at end of 118-day study,52%
same,Glycosylated hemoglobin reduction with topiramate treatment,"versus surviving control mice, end of 118-day study",48%
